Data published in ChEMBL document CHEMBL1833888, “Fuscoside E: a strong anti-inflammatory diterpene from Caribbean octocoral Eunicea fusca” (2011).
In brackets after ≈: the same amount, converted by molar mass. Activity calls are given as the source filed them. The rule behind the calls is not given here.

What was measured:
Bacillus sp. = assay: Antibacterial activity against Bacillus sp. by disc-diffusion assay; format: functional, organism-based
[1] = system: Brucella pseudogrignonensis; assay: Antibacterial activity against Ochrobactrum pseudogrignonense 21-6 pin by disc-diffusion assay; format: functional, organism-based
Vibrio sp. = assay: Antibacterial activity against Vibrio sp. 11-6 DEP; format: functional
Mus musculus = assay: Antiinflammatory activity in mouse assessed as inhibition of TPA-induced mouse ear edema at 0.5 mg/ear administered relative to untreated control; format: functional

SMILES	Activity (Bacillus sp.)	Activity [1]	MIC (Vibrio sp.) [µg/mL]	inhibition (INH) (Mus musculus) [%]
C/C=C(/CC[C@@H](C)[C@H]1CC[C@H]2[C@@H]3CC=C4C[C@@H](O)CC[C@]4(C)[C@H]3CC[C@]12C)C(C)C	Active	Active		
CC(C)CCC[C@@H](C)[C@H]1CC[C@H]2[C@@H]3CC=C4C[C@@H](O)CC[C@]4(C)[C@H]3CC[C@]12C	Active	Active		
CC(C)C/C=C/[C@@H](C)[C@H]1CC[C@H]2[C@@H]3CC=C4C[C@@H](O)CC[C@]4(C)[C@H]3CC[C@]12C	Active	Active		
C=C1/C=C/[C@@H](C(C)C)CC/C(C)=C/CC1	Active	Active	15 (≈ 73.4 µM)	7.1
CC(C)C(C)/C=C/[C@@H](C)[C@H]1CC[C@H]2[C@@H]3CC=C4C[C@@H](O)CC[C@]4(C)[C@H]3CC[C@]12C (some centres not stated)	Active	Active		
COc1ccc2c(c1)c(CC(=O)O)c(C)n2C(=O)c1ccc(Cl)cc1 [INDOMETHACIN]				77.3
CC(=O)O[C@@H]1[C@H](O[C@H]2CC[C@H](C)[C@@]3(C)C[C@@H](/C(C)=C/CC=C(C)C)CC[C@H]23)OC[C@@H](O)[C@H]1O [FUSCOSIDE E]	Active	Active		80.5
C/C=C(\CC[C@@H](C)[C@H]1CC[C@H]2[C@@H]3CC=C4C[C@@H](O)CC[C@]4(C)[C@H]3CC[C@]12C)C(C)C	Active	Active		
C=C[C@@]1(C)CC[C@H](/C(C)=C/C=C/C(C)(C)O)C[C@@H]1C(=C)C [FUSCOL]				27.3
C=C[C@@]1(C)CC[C@H](/C(C)=C/C=C/C(C)(C)O[C@@H]2OC[C@@H](O)[C@@H](O)[C@@H]2O)C[C@@H]1C(=C)C [FUSCOSIDE B]				81.5
CC(C)C(C)CC[C@@H](C)[C@H]1CC[C@H]2[C@@H]3CC=C4C[C@@H](O)CC[C@]4(C)[C@H]3CC[C@]12C (some centres not stated)	Active	Active		
